The target of one assay is human DGKα (Homo sapiens, UniProt P23743). Nature of the assay: DGKα Biochemical Activity Assay (ADP-Glo).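 Note: luminescent detection of ADP produced as DGKα phosphorylates DAG to phosphatidic acid, IC50 from four-parameter nonlinear curve fit.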 In general terms: ADP-Glo first removes unused ATP, then detects ADP through luciferase.
For assay [1], the system named is Jurkat NFκB-luciferase cells. Briefly: Jurkat NFκB-Luciferase Assay. The format is cell-based. Conditions: Homo sapiens; Jurkat NFκB-luciferase cells activated with anti-CD3 antibody (OKT3), 2.5 hrs at 37° C.; geometric mean; read-out: DGK NFKb Luciferase EC50. Put shortly:
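Jurkat NFκB-luciferase reporter cells at 1 million cells/ml in RPMI with 10% FBS were added to antibody-coated, compound-containing wells. Luciferase activity read by One-Glo Ex luminescence 7 minutes after reagent addition.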

The mark [2] stands for this setting: recombinant DGKα 1 nM, 100 μM ATP, 18:1 DAG/POPS/octylglucoside micelles, 1 hour at 25° C., geometric mean, read-out: HTBS DGKa 1X ATP KM IC50.

This is an account of results in patent US11976072B2, “Diacylglycerol kinase modulating compounds” (priority 2021, dated 2024).

Read-outs that look alike come from different tables or passages of the source.

The term IC50 denotes the concentration that gives 50% inhibition. The EC50 is the midpoint of the concentration-response curve.

human DGKα, sequence (P23743 whole entry): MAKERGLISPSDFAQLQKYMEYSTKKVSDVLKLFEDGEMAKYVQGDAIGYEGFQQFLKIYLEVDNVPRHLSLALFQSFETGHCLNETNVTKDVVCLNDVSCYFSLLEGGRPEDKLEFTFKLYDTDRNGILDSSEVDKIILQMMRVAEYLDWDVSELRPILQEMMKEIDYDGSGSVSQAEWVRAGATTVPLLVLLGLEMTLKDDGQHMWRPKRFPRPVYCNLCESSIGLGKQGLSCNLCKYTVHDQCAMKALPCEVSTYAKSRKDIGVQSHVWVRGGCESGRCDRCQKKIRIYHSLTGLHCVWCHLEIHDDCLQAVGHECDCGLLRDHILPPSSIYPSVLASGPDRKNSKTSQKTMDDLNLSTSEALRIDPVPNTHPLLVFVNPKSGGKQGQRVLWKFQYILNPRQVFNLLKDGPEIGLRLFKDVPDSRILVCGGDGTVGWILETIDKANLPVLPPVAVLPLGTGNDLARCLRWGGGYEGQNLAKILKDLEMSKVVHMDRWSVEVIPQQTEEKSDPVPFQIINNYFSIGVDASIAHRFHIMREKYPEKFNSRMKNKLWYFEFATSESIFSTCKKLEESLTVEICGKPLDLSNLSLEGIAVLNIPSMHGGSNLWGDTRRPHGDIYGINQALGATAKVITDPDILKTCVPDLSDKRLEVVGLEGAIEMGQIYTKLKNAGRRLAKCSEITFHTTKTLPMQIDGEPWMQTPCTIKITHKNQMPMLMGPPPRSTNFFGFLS

Consider `Cc1nnc2nc(N3CCCc4c(C#Cc5cnn(C)c5)cccc43)c3c(F)cccc3n12` [Example 233, 6-fluoro-1-methyl-5-[5-[2-(1-methylpyrazol-4-yl)ethynyl]-3,4-dihydro-2H-quinolin-1-yl]-[1,2,4]triazolo[4,3-a]quinazoline], for which the concentration for half-maximal inhibition (IC50) on human DGKα (setting [2]) was 6.74 nM. Further, the EC50 in assay [1] was determined as 2.15 nM.
For the compound `Cc1nnc2nc(N3CCCc4c(C#CC5(CO)CC5)cccc43)c3cc(F)ccc3n12` [Example 234, [1-[2-[1-(7-fluoro-1-methyl-[1,2,4]triazolo[4,3-a]quinazolin-5-yl)-3,4-dihydro-2H-quinolin-5-yl]ethynyl]cyclopropyl]methanol], at human DGKα (setting [2]), the concentration for half-maximal inhibition (IC50) is 3.86 nM. The concentration giving a half-maximal response (EC50) in assay [1] was 23.3 nM.
`Cc1nnc2nc(N3CCCc4c(C#CC(C)(C)CO)cccc43)c3cc(F)ccc3n12` [Example 235, 4-[1-(7-fluoro-1-methyl-[1,2,4]triazolo[4,3-a]quinazolin-5-yl)-3,4-dihydro-2H-quinolin-5-yl]-2,2-dimethyl-but-3-yn-1-ol]: the IC50 on human DGKα (setting [2]) came to 6.85 nM. For the same compound, the concentration giving a half-maximal response (EC50) in assay [1] is 8.26 nM.
For the compound `Cc1nnc2nc(N3CCCc4c(C#Cc5cnn(C)c5)cccc43)c3cc(F)ccc3n12` [Example 236, 7-fluoro-1-methyl-5-[5-[2-(1-methylpyrazol-4-yl)ethynyl]-3,4-dihydro-2H-quinolin-1-yl]-[1,2,4]triazolo[4,3-a]quinazoline], on human DGKα (setting [2]), the IC50 is 3.65 nM. Moreover, the EC50 in assay [1] came to 2.52 nM.
With `Cc1nnc2nc(N(CC(F)F)c3cc(F)cc(C#CC4CC(F)(F)C4)c3)c3c(F)c(F)ccc3n12` [Example 237, N-[3-[2-(3,3-difluorocyclobutyl)ethynyl]-5-fluoro-phenyl]-N-(2,2-difluoroethyl)-6,7-difluoro-1-methyl-[1,2,4]triazolo[4,3-a]quinazolin-5-amine], the IC50 on human DGKα (setting [2]) stood at 8.31 nM. Moreover, the concentration for a half-maximal effect (EC50) in assay [1] is 1.26 nM.
For the compound `Cc1nnc2nc(N(CC(F)F)c3cc(F)cc(C#CC4(O)CCC4)c3)c3c(F)c(F)ccc3n12` [Example 238, 1-[2-[3-[2,2-difluoroethyl-(6,7-difluoro-1-methyl-[1,2,4]triazolo[4,3-a]quinazolin-5-yl)amino]-5-fluoro-phenyl]ethynyl]cyclobutanol], the IC50 on human DGKα (setting [2]) was 7.08 nM. For the same compound, the concentration for a half-maximal effect (EC50) in assay [1] turned out to be 24.5 nM.
On the same counts, the results for `CCC(O)C#Cc1cc(F)cc(N(CC(F)F)c2nc3nnc(C)n3c3ccc(F)c(F)c23)c1` (stereo not drawn) [Example 239, 1-[3-[2,2-difluoroethyl-(6,7-difluoro-1-methyl-[1,2,4]triazolo[4,3-a]quinazolin-5-yl)amino]-5-fluoro-phenyl]pent-1-yn-3-ol] are 24.8 nM and 31.6 nM.
Regarding `Cc1nnc2nc(N3CCCc4c(C#CC(C)(C)C#N)cccc43)c3c(F)c(F)ccc3n12` [Example 240, 4-[1-(6,7-difluoro-1-methyl-[1,2,4]triazolo[4,3-a]quinazolin-5-yl)-3,4-dihydro-2H-quinolin-5-yl]-2,2-dimethyl-but-3-ynenitrile], the concentration for half-maximal inhibition (IC50) at human DGKα (setting [2]) came out at 7.05 nM. Besides, in assay [1], the EC50 was 3.41 nM.
The matching figures for `CCC(C)(O)C#Cc1cc(F)cc(N(CC(F)F)c2nc3nnc(C)n3c3ccc(F)c(F)c23)c1` (stereo not drawn) [Example 241, 1-[3-[2,2-difluoroethyl-(6,7-difluoro-1-methyl-[1,2,4]triazolo[4,3-a]quinazolin-5-yl)amino]-5-fluoro-phenyl]-3-methyl-pent-1-yn-3-ol]: 38.6 nM and 29.5 nM.
On the same counts, the results for `CC(C)(C#N)C#Cc1cccc2c1CCCN2c1nc2nncn2c2ccc(F)c(F)c12` [Example 242, 4-[1-(6,7-difluoro-[1,2,4]triazolo[4,3-a]quinazolin-5-yl)-3,4-dihydro-2H-quinolin-5-yl]-2,2-dimethyl-but-3-ynenitrile] are 3.75 nM and 1.94 nM.
The matching figures for `CC(C)(C#N)C#Cc1cccc2c1CCCN2c1nc2nncn2c2cccc(F)c12` [Example 243, 4-[1-(6-fluoro-[1,2,4]triazolo[4,3-a]quinazolin-5-yl)-3,4-dihydro-2H-quinolin-5-yl]-2,2-dimethyl-but-3-ynenitrile]: 3.14 nM and 2.33 nM.
For `Cc1nnc2nc(N3CCCc4c(C#CC(C)(C)C#N)cccc43)c3cc(F)ccc3n12` [Example 244, 4-[1-(7-fluoro-1-methyl-[1,2,4]triazolo[4,3-a]quinazolin-5-yl)-3,4-dihydro-2H-quinolin-5-yl]-2,2-dimethyl-but-3-ynenitrile], on human DGKα (setting [2]), the 50% inhibitory concentration (IC50) came out at 10.2 nM. Further, in assay [1], the 50% effective concentration (EC50) is 3.24 nM.
Turning to `Cc1nnc2nc(N(CC(F)F)c3cc(F)cc(C#CC(C)(C)C#N)c3)c3cc(F)ccc3n12` [Example 245, 4-[3-[2,2-difluoroethyl-(7-fluoro-1-methyl-[1,2,4]triazolo[4,3-a]quinazolin-5-yl)amino]-5-fluoro-phenyl]-2,2-dimethyl-but-3-ynenitrile], on human DGKα (setting [2]), the IC50 came out at 21.2 nM. In assay [1], the EC50 was determined as 6.75 nM.
The matching figures for `Cc1nnc2nc(N3CCCc4c(C#CC5CCC5)cccc43)c3c(F)cccc3n12` [Example 246, 5-[5-(2-cyclobutylethynyl)-3,4-dihydro-2H-quinolin-1-yl]-6-fluoro-1-methyl-[1,2,4]triazolo[4,3-a]quinazoline]: 39.3 nM and 0.272 nM.
For `Cc1nnc2nc(N3CCN(C)Cc4c(C#CC(C)(C)C#N)cccc43)c3c(F)cccc3n12` [compound 163], inhibition against human DGKα was half-maximal at 17.1 nM (IC50). The EC50 in assay [1] came out at 28.4 nM.
